{
  "source": "patent US20220016144A1",
  "about": "“STABLE AQUEOUS COMPOSITION COMPRISING OLIGOSACCHARIDES” (SOCIETE DES PRODUITS NESTLE S.A., priority 2018, published 2022)",
  "experiment": "Example 2: HPLC analysis of oligosaccharides, fructose isomers and lactose at pH 6 and 7 over aseptic filling and room temperature storage",
  "type": "physicochemical",
  "experimental": "Oligosaccharides 2′Fucosyllactose (2′FL) and Lacto-N-neotetraose (LNnT) were mixed in a 10:1 ratio (w/w) and dissolved in water to a final concentration of 10% (w/v). Out of this solution, […] samples were generated respectively having pH 6 and 7 (by addition of KOH) Such samples were subjected to heat treatment (UHT) followed by aseptic filling of small monodose bottles. Solutions at different pHs were analysed before and after filling of bottles as well as after different times of storage at room temperature (21-26° C.). Analysis was done by HPLC using a TSK gel Amide-80 (150 mm×4.6 mm, particle size: 3 μm) column and detection via a charged aerosol detector. F or 2′FL (FIG. 2a), LNnT (FIG. 2d), the fructose isomers of the added 2′FL (indicated as FL lactulose in the graphs, FIG. 2d) and of added LNnT (indicated as LNnT isomer in the graphs, FIG. 2e) as well as for their degradation products (lactose, FIG. 2c). The pH of the solution was also measured. All data are expressed as % of added oligosaccharides.",
  "data": [
    {"smiles": "CC(=O)N[C@H]1[C@H](O[C@H]2[C@@H](O)[C@@H](CO)O[C@@H](O[C@H]3[C@H](O)[C@@H](O)C(O)O[C@@H]3CO)[C@@H]2O)O[C@H](CO)[C@@H](O[C@@H]2O[C@H](CO)[C@H](O)[C@H](O)[C@H]2O)[C@@H]1O", "note": "(mixture of isomers) [LNnT, lacto-N-neotetraose]", "values": [
      {"measurement": "LNnT isomers formation", "setting": "pH 6, compared with pH 7", "value": "much lower"},
      {"measurement": "oligosaccharide amounts at aseptic filling and over time", "setting": "pH 6, UHT, aseptic filling, storage at 21-26° C., 2′FL:LNnT 10:1, 10% w/v", "value": "much more stable"}
    ]}
  ]
}
